Key:
[1] = Disregulation of DNA-damage and oxidative stress responsive gene expression in human U87 cells assessed as change in SESN2 mRNA level at 0.5 uM after 3 hrs by microarray analysis relative to untreated control; format: functional, U-87MG ATCC
[2] = Disregulation of inflammation related gene expression in human U87 cells assessed as change in IL6 mRNA level at 0.5 uM after 16 hrs by microarray analysis relative to untreated control; format: functional, cell-based; conditions: U-87MG ATCC
[3] = Disregulation of inflammation related gene expression in human U87 cells assessed as change in IL8 mRNA level at 0.5 uM after 16 hrs by microarray analysis relative to untreated control; format: functional, cell-based; conditions: U-87MG ATCC
[4] = Disregulation of inflammation related gene expression in human U87 cells assessed as change in IFRD1 mRNA level at 0.5 uM after 16 hrs by microarray analysis relative to untreated control; format: functional, cell-based; conditions: U-87MG ATCC
[5] = Disregulation of apoptosis related gene expression in human U87 cells assessed as change in FAS mRNA level at 0.5 uM after 16 hrs by microarray analysis relative to untreated control; format: functional, cell-based; conditions: U-87MG ATCC
[6] = Disregulation of apoptosis related gene expression in human U87 cells assessed as change in E2F1 mRNA level at 0.5 uM after 16 hrs by microarray analysis relative to untreated control; format: functional, cell-based; conditions: U-87MG ATCC
[7] = Disregulation of cell cycle related gene expression in human U87 cells assessed as change in cyclin D mRNA level at 0.5 uM after 16 hrs by microarray analysis relative to untreated control; format: functional, cell-based; conditions: U-87MG ATCC
[8] = Disregulation of cell cycle related gene expression in human U87 cells assessed as change in cyclin F mRNA level at 0.5 uM after 16 hrs by microarray analysis relative to untreated control; format: functional, cell-based; conditions: U-87MG ATCC
[9] = Disregulation of cell cycle related gene expression in human U87 cells assessed as change in cyclin E2 mRNA level at 0.5 uM after 16 hrs by microarray analysis relative to untreated control; format: functional, cell-based; conditions: U-87MG ATCC
[10] = Disregulation of cell development related gene expression in human U87 cells assessed as change in HQXB9 mRNA level at 0.5 uM after 16 hrs by microarray analysis relative to untreated control; format: functional, cell-based; conditions: U-87MG ATCC

Cc1ccc(CN(Cc2ccc(O)c3ncccc23)Cc2ccc(O)c3ncccc23)cc1
fold change (FC) [1]: >1.4
fold change (FC) [2]: 3
fold change (FC) [3]: 3
fold change (FC) [4]: 3
fold change (FC) [5]: 3
fold change (FC) [6]: 3
fold change (FC) [7]: 3
fold change (FC) [8]: 3
fold change (FC) [9]: 3
fold change (FC) [10]: 3

— ChEMBL document CHEMBL1153753, “Structure-activity relationships and mechanism of action of antitumor bis 8-hydroxyquinoline substituted benzylamines” (Eur J Med Chem, 2010)
